Test results published in patent US20030054980A1, “Ceruloplasmin and uses thereof in neurodegenerative related conditions” (priority 2000, published 2003).

Assays:
[1] = tested on: P19 neurons; assay: Pro-aggregative effect on P19 neurons (culture morphology, surfaces not occupied by cells); conditions: for Morphological change: 24 h; for induction of neuronal aggregation (text summary of Table 1): concentrations of Table 1, copper equivalent to (His2Cu: or higher than) that in CP
Description: Undifferentiated P19 cells were propagated in complete medium containing alpha-modified Eagle's minimal essential medium (α-MEM; Gibco-BRL, Burlington, Ontario) supplemented with 10% heat-inactivated fetal bovine serum (Cansera International, Rexdale, Ontario), 2.5 U/mL penicillin and 2.5 μg/mL streptomycin (Sigma-Aldrich). Cells were maintained at 37° C. in a humidified atmosphere of 5% CO2 and passaged every two days on non-coated tissue culture dishes. To achieve neuronal differentiation, P19 cells were seeded in bacteriological-grade petri dishes at a density of 0.9×10^5 cells/mL, and grown as aggregates, during 4 days, in complete medium containing 0.5 μM RA (Sigma-Aldrich). At day 4, aggregates were dissociated by incubation for 3 min, at room temperature, with 0.025% trypsin (250 Nα-benzoyl-L-Arg-ethyl ester (BAEE) unit per 15×10^6 cells; Sigma-Aldrich) in phosphate buffer saline (PBS) containing 1 mM EDTA, and digestion stopped by adding an equal volume of complete α-MEM medium. The resulting cellular suspensions were passaged by pipetting and subjected to two wash-and-centrifuge cycles, and individualized cells (neurons) were transferred (1500-1800 cells/mm^2) to gelatinized tissue culture dishes or multiwell plates containing NEUROBASAL™ medium (Gibco-BRL) supplemented with B27™ supplement (Gibco-BRL) and 0.5 mM L-glutamine, but no RA. Gelatinization of culture surfaces was done by incubation with 0.1% gelatin for 0.5 h at 22° C., followed by several washes with PBS to remove unbound protein. For comparison purposes, solutions of 2% gelatin, 10 μg/mL fibronectin, 10 μg/mL laminin and 5 mg/mL CP (in this case, in a proportion of 50 μL per cm^2) were also used for coating. Differentiation to fibroblasts was done by culturing P19 cells as monolayers, for 4 days, in complete medium containing RA. Cells were trypsinized every 2 days and replated in non-coated tissue culture dishes each time. From day 4 and after, cells were cultured in complete medium without RA.
At 3, 24 or 48 h after plating, P19 neurons were incubated for 24 h in a fresh provision of supplemented Neurobasal medium not containing (control) or containing CP or another agent. Protease inhibitors were added 1 h before CP. Freshly individualized cells of the other cell types tested were let to adhere to culture surfaces, in their normal culture medium (containing serum), for times indicated: undifferentiated P19 cells and their fibroblast derivatives (both for 3 and 24 h), rat smooth muscle cells (7 days), and rat hepatocytes (3 h). Afterwards, cells were extensively rinsed with PBS and incubated for 24 h in supplemented Neurobasal medium in the absence or presence of CP. After treatment with CP or other agents, cells were examined for morphology, viability, ALAMARBLUE™ dye penetration and/or apoptosis, as indicated below.
Morphological analysis was done by inversion microscopy (NIKKON™ TMS), using phase-contrast objectives and a camera (NIKKON™ F70).

[2] = tested on: P19 neurons; assay: Inhibition of CP-induced neuronal aggregation; type: cell-based, mouse; conditions: for inhibition of CP-induced aggregation, inhibitors tested individually: 6-7 TIU/mL or half this concentration, 3.8 μM CP; for inhibition of CP-induced neuronal aggregation: 6-7 trypsin inhibitory U/mL each, added 1 h before 3.8 μM CP, morphology and dye penetration analysis
Description: Protease inhibitors were added 1 h before CP.
Day 4 P19 neurons were plated in 24- or 48-well plates in prevision of dye penetration analysis. After treatment with CP or other agents, cells were incubated for 5 h with 500 μL of a solution containing one part of ALAMARBLUE™ (Medicorp Inc., Montreal, Quebec, Canada) and nine parts of fresh supplemented Neurobasal medium. This dye is reduced to a fluorescent derivative by metabolic activity of living cells. At the end of incubation, the fluorescence of the culture medium was monitored at 590 nm, using 540 nm as the excitation wavelength.

[3] = tested on: resorufin-labeled casein; assay: Detection of proteolytic activity with resorufin-labeled casein; type: biochemical; conditions: culture media conditioned by cells, in all cases
Description: Evaluation of proteolytic activity in CP preparations or in cell culture media was done with resorufin-labeled casein (universal protease chromogenic substrate; Roche Diagnostics). Aliquots (100 μL) of CP solutions (about 13 mg/mL) or of culture media of cells after 24 h treatment with and without CP were incubated at 37° C. for various times (up to 22 h), with 50 μL of resorufin-labeled casein solution provided by the manufacturer and 50 μL of 0.2 M Tris-HCl, pH 7.8 containing 0.02 M CaCl2. The reaction was stopped by adding 480 μL of 5% trichloroacetic acid. After 10 min of incubation at 37° C. and 5 min of centrifugation, 400 μL of the resulting supernatants were mixed with 600 μL of 0.5 M Tris-HCl, pH 8.8, and absorbance read at 574 nm. Alternately, resorufin-labeled casein was added to culture media (50 μL substrate for each 150 μL supplemented NEUROBASAL™ medium) while cells were being treated with CP. Culture media were removed at various times (up to 24 h) and subjected to acid precipitation and spectrophotometric measurement as indicated above. Trypsin (10100 U BAEE/mg; Sigma-Aldrich) was used as a standard.

[4] = 1.14 to 49.2 μM, day 4 P19 neurons on gelatin

NC(Cc1c[nH]cn1)C(=O)[O-].NC(Cc1c[nH]cn1)C(=O)[O-].[Cu+2] (stereo not shown) [(His)2Cu complex]
Morphological change ([1]; 23 to 390 μM): no aggregation
induction of neuronal aggregation (text summary of Table 1) [1]: did not induce neuronal aggregation

[Cl][Cu][Cl] [CuCI2, CuCl2]
Morphological change ([1]; 246 μM): cell death
Morphological change [1, 4]: no aggregation
induction of neuronal aggregation (text summary of Table 1) [1]: did not induce neuronal aggregation

O=S(=O)([O-])[O-].[Cu+2] [CuSO4]
Morphological change ([1]; 246 μM): cell death
Morphological change [1, 4]: no aggregation
induction of neuronal aggregation (text summary of Table 1) [1]: did not induce neuronal aggregation

Bovine serum albumin: serum protein that can transport copper ions
inhibition of CP-induced neuroaggregation ([2]; albumin at 3.6 μM): did not inhibit
Morphological change ([1]; 0.3 to 7.5 μM): no aggregation
induction of neuronal aggregation (text summary of Table 1) [1]: failed to induce-aggregation

aprotinin
hydrolysis of resorufin-labeled casein [3]: completely abolished hydrolysis
inhibition of CP-induced aggregation, inhibitors tested individually [2]: Complete inhibition of aggregation
inhibition of CP-induced neuronal aggregation [2]: completely hindered

B1: SBTI: soybean trypsin inhibitor, serine protease inhibitor (protein, UniProt P01070 25-205, looked up)
Trypsin inhibitor A: DFVLDNEGNPLENGGTYYILSDITAFGGIRAAPTGNERCPLTVVQSRNELDKGIGTIISSPYRIRFIAEGHPLSLKFDSFAVIMLCVGIPTEWSVVEDLPEGPAVKIGENKDAMDGWFRLERVSDDEFNNYKLVFCPQQAEDDKCGDIGISIDHDDGTRRLVVSKNKPLVVQFQKLDKESL
hydrolysis of resorufin-labeled casein [3]: completely abolished hydrolysis
inhibition of CP-induced aggregation, inhibitors tested individually [2]: Complete inhibition of aggregation
inhibition of CP-induced neuronal aggregation [2]: completely hindered

B2: Bovine serum amineoxidase: 180 kDa circulating non-blue copper protein (protein, UniProt Q29437 17-762, looked up)
Primary amine oxidase, liver …: REEGGVGSEEGVGKQCHPSLPPRCPSRSPSDQPWTHPDQSQLFADLSREELTTVMSFLTQQLGPDLVDAAQARPSDNCVFSVELQLPPKAAALAHLDRGSPPPAREALAIVFFGGQPQPNVTELVVGPLPQPSYMRDVTVERHGGPLPYYRRPVLLREYLDIDQMIFNRELPQAAGVLHHCCSYKQGGQKLLTMNSAPRGVQSGDRSTWFGIYYNITKGGPYLHPVGLELLVDHKALDPADWTVQKVFFQGRYYENLAQLEEQFEAGQVNVVVIPDDGTGGFWSLKSQVPPGPTPPLQFHPQGPRFSVQGNRVASSLWTFSFGLGAFSGPRVFDVRFQGERLAYEISLQEAGAVYGGNTPAAMLTRYMDSGFGMGYFATPLIRGVDCPYLATYMDWHFVVESQTPKTLHDAFCVFEQNKGLPLRRHHSDFLSHYFGGVAQTVLVFRSVSTMLNYDYVWDMVFYPNGAIEVKLHATGYISSAFLFGAARRYGNQVGEHTLGPVHTHSAHYKVDLDVGGLENWVWAEDMAFVPTAIPWSPEHQIQRLQVTRKQLETEEQAAFPLGGASPRYLYLASKQSNKWGHPRGYRIQTVSFAGGPMPQNSPMERAFSWGRYQLAITQRKETEPSSSSVFNQNDPWTPTVDFSDFINNETIAGKDLVAWVTAGFLHIPHAEDIPNTVTVGNGVGFFLRPYNFFDQEPSMDSADSIYFREGQDAGSCEINPLACLPQAATCAPDLPVFSHGGYPEY
Morphological change ([1]; 0.28 to 0.56 μM): no aggregation
induction of neuronal aggregation (text summary of Table 1) [1]: did not induce aggregation
